Data taken from patent US12473303B2, “4-[[(7-aminopyrazolo[1,5-a]pyrimidin-5-yl)amino methyl]piperidin-3-ol compounds and their therapeutic use” (CARRICK THERAPEUTICS LIMITED, priority 2019, dated 2025).
Read-outs that look alike come from different tables or passages of the source.

Experiments:
Human CDK7/CycH/MAT1 = Human CDK7/CycH/MAT1 (Homo sapiens (Human), UniProt P50613); test: Radiometric protein kinase assay (33PanQinase Activity Assay), CDK7; type: biochemical; conditions: Table 1; ATP 3 μM
Experimental: (§1) A radiometric protein kinase assay (^33PanQinase® Activity Assay) was used for measuring the kinase activity of the two protein kinases (CDK12/CDK7). All kinase assays were performed in 96-well FlashPlates™ from PerkinElmer (Boston, MA, USA) in a 50 μL reaction volume.
(§2) The reaction cocktail was pipetted in four steps in the following order: • 20 μL of assay buffer (standard buffer) • 5 μL of ATP solution (in H2O) • 5 μL of test compound (in 10% DMSO) • 10 μL of substrate/10 μL of enzyme solution (premixed)
(§3) The reaction mixture was incubated at 30° C. for 60 min and then stopped by the addition of 2% (v/v) H3PO4. Plates were aspirated and washed two times with 200 μL 0.9% (w/v) NaCl. Incorporation of ^33Pi was determined with a microplate scintillation count (Microbeta, Wallac).
(§4) The fitting method used was a least-squares fit.

A673 cells = test: Cellular potency in A673 cells; type: cell-based; conditions: for IC50: Homo sapiens, A673, Table 3, A673 cells; for Ratio of Biochemical Potency: Cellular Potency: Table 3, ratio >0.9 is an indicator of Cyclin K degradation
Human CDK12 wt/CycK = Human CDK12 wt/CycK (Homo sapiens (Human), UniProt Q9NYV4); test: Radiometric protein kinase assay (33PanQinase Activity Assay), CDK12; type: biochemical; conditions: for CDK7/CDK12: ratio greater than 1 indicated selectivity for CDK12
Experimental: as §1, §2, §3, §4

[1] = Table 1, ATP 0.3 μM, read-out: CDK12 IC50
[2] = Table 3, CDK12 kinase activity, read-out: Biochemical Potency IC50

Chain of Human CDK7/CycH/MAT1 (P50613 whole entry): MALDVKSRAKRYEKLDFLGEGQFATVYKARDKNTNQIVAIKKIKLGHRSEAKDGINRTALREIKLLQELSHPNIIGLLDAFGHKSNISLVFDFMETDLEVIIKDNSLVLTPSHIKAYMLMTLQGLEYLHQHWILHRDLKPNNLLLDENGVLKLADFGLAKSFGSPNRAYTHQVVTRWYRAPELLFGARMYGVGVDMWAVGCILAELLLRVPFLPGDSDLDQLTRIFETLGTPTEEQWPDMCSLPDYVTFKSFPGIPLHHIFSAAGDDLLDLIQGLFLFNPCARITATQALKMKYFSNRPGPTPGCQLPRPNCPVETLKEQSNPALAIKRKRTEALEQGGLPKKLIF
Chain of Human CDK7/CycH/MAT1 (P51946 whole entry partner): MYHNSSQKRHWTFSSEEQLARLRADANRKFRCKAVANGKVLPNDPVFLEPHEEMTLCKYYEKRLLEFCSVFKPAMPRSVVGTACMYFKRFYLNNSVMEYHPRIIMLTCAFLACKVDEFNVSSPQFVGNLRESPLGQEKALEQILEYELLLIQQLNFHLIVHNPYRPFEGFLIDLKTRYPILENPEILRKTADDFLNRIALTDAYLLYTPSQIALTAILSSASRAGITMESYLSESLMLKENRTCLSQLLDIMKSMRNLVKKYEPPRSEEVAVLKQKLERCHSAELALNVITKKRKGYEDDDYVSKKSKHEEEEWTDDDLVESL
Chain of Human CDK7/CycH/MAT1 (P51948 whole entry partner): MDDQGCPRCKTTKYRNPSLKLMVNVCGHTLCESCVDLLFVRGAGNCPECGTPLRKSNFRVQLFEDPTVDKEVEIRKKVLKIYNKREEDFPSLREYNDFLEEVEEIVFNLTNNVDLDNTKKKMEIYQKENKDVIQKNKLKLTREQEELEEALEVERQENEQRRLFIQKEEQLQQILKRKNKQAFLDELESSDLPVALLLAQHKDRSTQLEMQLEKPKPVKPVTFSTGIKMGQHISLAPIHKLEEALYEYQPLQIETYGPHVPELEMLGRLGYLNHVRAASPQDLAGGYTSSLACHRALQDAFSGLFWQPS
Chain of Human CDK12 wt/CycK (Q9NYV4 whole entry): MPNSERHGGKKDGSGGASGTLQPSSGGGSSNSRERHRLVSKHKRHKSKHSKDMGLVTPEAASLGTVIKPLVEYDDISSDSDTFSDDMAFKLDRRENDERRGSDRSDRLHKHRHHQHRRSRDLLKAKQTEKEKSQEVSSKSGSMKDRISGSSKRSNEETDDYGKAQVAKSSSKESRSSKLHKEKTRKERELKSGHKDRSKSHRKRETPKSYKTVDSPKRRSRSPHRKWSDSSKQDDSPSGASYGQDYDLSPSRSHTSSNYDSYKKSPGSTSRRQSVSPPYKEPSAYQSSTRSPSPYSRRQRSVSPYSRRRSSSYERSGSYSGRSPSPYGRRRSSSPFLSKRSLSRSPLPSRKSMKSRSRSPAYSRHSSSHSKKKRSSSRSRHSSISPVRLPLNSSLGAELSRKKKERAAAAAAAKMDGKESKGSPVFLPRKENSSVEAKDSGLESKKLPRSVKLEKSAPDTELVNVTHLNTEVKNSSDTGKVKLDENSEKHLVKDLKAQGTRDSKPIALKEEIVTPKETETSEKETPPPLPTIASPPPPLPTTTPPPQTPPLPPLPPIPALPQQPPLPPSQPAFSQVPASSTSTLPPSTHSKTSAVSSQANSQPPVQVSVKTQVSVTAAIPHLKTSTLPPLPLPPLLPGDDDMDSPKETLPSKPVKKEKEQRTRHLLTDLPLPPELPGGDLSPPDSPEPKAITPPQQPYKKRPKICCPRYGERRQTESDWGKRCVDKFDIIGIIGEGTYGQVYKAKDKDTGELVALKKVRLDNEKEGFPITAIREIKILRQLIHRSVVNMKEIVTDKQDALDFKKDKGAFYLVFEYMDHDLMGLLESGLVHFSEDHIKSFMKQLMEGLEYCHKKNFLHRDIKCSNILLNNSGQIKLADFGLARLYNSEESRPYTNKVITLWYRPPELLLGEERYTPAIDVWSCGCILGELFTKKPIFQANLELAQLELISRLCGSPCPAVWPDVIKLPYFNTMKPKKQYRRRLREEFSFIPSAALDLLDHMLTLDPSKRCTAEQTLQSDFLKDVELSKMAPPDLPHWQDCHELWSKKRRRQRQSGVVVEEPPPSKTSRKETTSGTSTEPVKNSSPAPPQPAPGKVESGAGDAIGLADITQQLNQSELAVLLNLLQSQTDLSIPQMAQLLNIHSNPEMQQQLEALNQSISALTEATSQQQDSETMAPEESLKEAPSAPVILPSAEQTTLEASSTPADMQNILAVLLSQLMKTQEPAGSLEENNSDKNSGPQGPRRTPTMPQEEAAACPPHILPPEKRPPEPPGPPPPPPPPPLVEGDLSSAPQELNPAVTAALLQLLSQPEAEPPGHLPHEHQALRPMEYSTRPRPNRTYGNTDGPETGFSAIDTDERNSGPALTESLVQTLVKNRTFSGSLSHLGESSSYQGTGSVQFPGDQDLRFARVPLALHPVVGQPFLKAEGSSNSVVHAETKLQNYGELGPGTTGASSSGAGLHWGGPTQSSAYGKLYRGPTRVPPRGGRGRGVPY
Chain of Human CDK12 wt/CycK (O75909 whole entry partner): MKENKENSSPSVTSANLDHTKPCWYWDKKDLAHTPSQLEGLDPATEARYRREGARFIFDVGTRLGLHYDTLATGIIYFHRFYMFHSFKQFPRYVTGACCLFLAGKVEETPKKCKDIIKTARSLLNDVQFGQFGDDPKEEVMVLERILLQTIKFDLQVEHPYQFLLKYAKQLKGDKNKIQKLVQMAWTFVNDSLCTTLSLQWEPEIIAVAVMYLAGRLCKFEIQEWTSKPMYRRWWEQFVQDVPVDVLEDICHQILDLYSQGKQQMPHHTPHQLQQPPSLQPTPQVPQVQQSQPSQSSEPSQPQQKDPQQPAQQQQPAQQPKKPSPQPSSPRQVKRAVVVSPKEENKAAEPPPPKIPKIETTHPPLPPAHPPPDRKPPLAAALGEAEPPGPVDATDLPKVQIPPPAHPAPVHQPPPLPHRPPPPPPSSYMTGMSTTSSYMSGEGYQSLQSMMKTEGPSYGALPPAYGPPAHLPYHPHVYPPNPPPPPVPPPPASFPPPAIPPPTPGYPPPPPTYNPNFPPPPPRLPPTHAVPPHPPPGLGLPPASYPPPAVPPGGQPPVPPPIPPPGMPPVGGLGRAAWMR

SMILES | IC50 (Human CDK7/CycH/MAT1) [nM] | IC50 (A673 cells) [nM] | IC50 (Human CDK12 wt/CycK; [1]) [nM] | CDK7/CDK12 (Human CDK12 wt/CycK; Table 1) | IC50 (Human CDK12 wt/CycK; [2]) [nM] | Ratio of Biochemical Potency: Cellular Potency (A673 cells)
CC(C)c1cnn2c(NCc3cc4ccccc4o3)cc(NC[C@H]3CCNC[C@@H]3O)nc12 [H-APPAMP-020, (3R,4R)-4-(((7-((benzofuran-2-ylmethyl)amino)-3-isopropylpyrazolo[1,5-a]pyrimidin-5-yl)amino)methyl)piperidin-3-ol] | 82 | 116 | 540 | 0.2 | 540 | 4.7
CC(C)c1cnn2c(NCc3cn4cccnc4n3)cc(NC[C@H]3CCNC[C@@H]3O)nc12 [H-APPAMP-002, (3R,4R)-4-(((7-((imidazo[1,2-a]pyrimidin-2-ylmethyl)amino)-3-isopropylpyrazolo[1,5-a]pyrimidin-5-yl)amino)methyl)piperidin-3-ol] | 704 | 716 | 71.5 | 9.85 | 71 | 0.1
CCc1cnn2c(NCc3cn4cccc(C)c4n3)cc(NC[C@H]3CCNC[C@@H]3O)nc12 [H-APPAMP-026, (3R,4R)-4-(((3-ethyl-7-(((8-methylimidazo[1,2-a]pyridin-2-yl)methyl)amino)pyrazolo[1,5-a]pyrimidin-5-yl)amino)methyl)piperidin-3-ol] | 69 | 2.5 | 31 | 2.2 | 31 | 12
CC(C)c1cnn2c(NCc3nc4ccccn4c3C3CC3)cc(NC[C@H]3CCNC[C@@H]3O)nc12 [H-APPAMP-024, (3R,4R)-4-(((7-(((3-cyclopropylimidazo[1,2-a]pyridin-2-yl)methyl)amino)-3-isopropylpyrazolo[1,5-a]pyrimidin-5-yl)amino)methyl)piperidin-3-ol] | 283 | 19.8 | 93 | 3.0 | 93 | 4.7
[2H]C([2H])(Nc1cc(NC[C@H]2CCNC[C@@H]2O)nc2c(C(C)C)cnn12)c1cn2ccccc2n1 [H-APPAMP-018, (3R,4R)-4-(((7-((imidazo[1,2-a]pyridin-2-ylmethyl-d2)amino)-3-isopropylpyrazolo[1,5-a]pyrimidin-5-yl)amino)methyl)piperidin-3-ol] | 206 | 16.3 | 65 | 3.2 | 65 | 4.0
CC(C)c1cnn2c(NCc3cn4cc(Cl)ccc4n3)cc(NC[C@H]3CCNC[C@@H]3O)nc12 [H-APPAMP-012, (3R,4R)-4-(((7-(((6-chloroimidazo[1,2-a]pyridin-2-yl)methyl)amino)-3-isopropylpyrazolo[1,5-a]pyrimidin-5-yl)amino)methyl)piperidin-3-ol] | 214 | 21.8 | 26 | 8.2 | 26 | 1.2
Cc1ccn2cc(CNc3cc(NC[C@H]4CCNC[C@@H]4O)nc4c(C(C)C)cnn34)nc2c1 [H-APPAMP-009, (3R,4R)-4-(((3-isopropyl-7-(((7-methylimidazo[1,2-a]pyridin-2-yl)methyl)amino)pyrazolo[1,5-a]pyrimidin-5-yl)amino)methyl)piperidin-3-ol] | 123 | 14.9 | 38 | 3.2 | 38 | 2.6

The next lines start with results.

IC50 (Human CDK7/CycH/MAT1) [nM] | IC50 (A673 cells) [nM] | IC50 (Human CDK12 wt/CycK; [1]) [nM] | CDK7/CDK12 (Human CDK12 wt/CycK; Table 1) | IC50 (Human CDK12 wt/CycK; [2]) [nM] | SMILES | Ratio of Biochemical Potency: Cellular Potency (A673 cells)
127 | 1.6 | 28 | 4.5 | 28 | COc1cccc2nc(CNc3cc(NC[C@H]4CCNC[C@@H]4O)nc4c(C5CC5)cnn34)cn12 [H-APPAMP-027, (3R,4R)-4-(((3-cyclopropyl-7-(((5-methoxyimidazo[1,2-a]pyridin-2-yl)methyl)amino)pyrazolo[1,5-a]pyrimidin-5-yl)amino)methyl)piperidin-3-ol] | 18
1060 | 5.7 | 62 | 17.1 | 62 | O[C@H]1CNCC[C@@H]1CNc1cc(NCc2cn3cc(C(F)(F)F)cc(Cl)c3n2)n2ncc(C3CC3)c2n1 [H-APPAMP-033, (3R,4R)-4-(((7-(((8-chloro-6-(trifluoromethyl)imidazo[1,2-a]pyridin-2-yl)methyl)amino)-3-cyclopropylpyrazolo[1,5-a]pyrimidin-5-yl)amino)methyl)piperidin-3-ol] | 11
11 |  | 597 |  |  | CC(C)c1cnn2c(Nc3csc4ccccc34)cc(NC[C@H]3CCNC[C@@H]3O)nc12 [REF-003, reference compound] | 
859 | 6.1 | 45 | 19.1 | 45 | Cc1cc(C)n2cc(CNc3cc(NC[C@H]4CCNC[C@@H]4O)nc4c(C5CC5)cnn34)nc2c1 [H-APPAMP-032, (3R,4R)-4-(((3-cyclopropyl-7-(((5,7-dimethylimidazo[1,2-a]pyridin-2-yl)methyl)amino)pyrazolo[1,5-a]pyrimidin-5-yl)amino)methyl)piperidin-3-ol] | 7.4
152 | 12.1 | 173 | 0.9 | 173 | CCc1cnn2c(NCc3cn4c(C(F)(F)F)cccc4n3)cc(NC[C@H]3CCNC[C@@H]3O)nc12 [H-APPAMP-034, (3R,4R)-4-(((3-ethyl-7-(((5-(trifluoromethyl)imidazo[1,2-a]pyridin-2-yl)methyl)amino)pyrazolo[1,5-a]pyrimidin-5-yl)amino)methyl)piperidin-3-ol] | 14
1150 | 10.4 | 287 | 4.0 | 287 | Cn1c(CNc2cc(NC[C@H]3CCNC[C@@H]3O)nc3c(C4CC4)cnn23)nc2cc(F)c(F)cc21 [H-APPAMP-036, (3R,4R)-4-(((3-cyclopropyl-7-(((5,6-difluoro-1-methyl-1H-benzo[d]imidazol-2-yl)methyl)amino)pyrazolo[1,5-a]pyrimidin-5-yl)amino)methyl)piperidin-3-ol] | 28
974 | 30 | 100 | 9.7 | 100 | O[C@H]1CNCC[C@@H]1CNc1cc(NCc2cn3cc(C4CC4)cc(C(F)(F)F)c3n2)n2ncc(C3CC3)c2n1 [H-APPAMP-042, (3R,4R)-4-(((3-cyclopropyl-7-(((6-cyclopropyl-8-(trifluoromethyl)imidazo[1,2-a]pyridin-2-yl)methyl)amino)pyrazolo[1,5-a]pyrimidin-5-yl)amino)methyl)piperidin-3-ol] | 3.3
125 |  | 253 |  |  | CC(C)c1cnn2c(NCc3ccncc3)cc(NC[C@H]3CCNC[C@@H]3O)nc12 [REF-002, reference compound] | 
 |  | 3200 |  |  | CC(C)c1cnn2c(NCc3ccccc3)cc(NC[C@H]3CCNC[C@@H]3O)nc12 [REF-001, reference compound] | 
